What was measured:
[1] = molecular target: Serine/threonine-protein kinase 24 (Homo sapiens) (UniProt Q9Y6E0); conditions: Compound concentration 1000.0 nM
[2] = molecular target: Serine/threonine-protein kinase pim-3 (Homo sapiens) (UniProt Q86V86); conditions: Compound concentration 1000.0 nM
[3] = molecular target: Tyrosine-protein kinase Yes (Homo sapiens) (UniProt P07947); conditions: Compound concentration 1000.0 nM
[4] = molecular target: Tyrosine-protein kinase JAK2 (Homo sapiens) (UniProt O60674); conditions: Compound concentration 1000.0 nM
[5] = molecular target: Tyrosine-protein kinase ZAP-70 (Homo sapiens) (UniProt P43403); conditions: Compound concentration 1000.0 nM
[6] = molecular target: Insulin receptor-related protein (Homo sapiens) (UniProt P14616); conditions: Compound concentration 1000.0 nM
[7] = molecular target: Serine/threonine-protein kinase LATS2 (Homo sapiens) (UniProt Q9NRM7); conditions: Compound concentration 1000.0 nM
[8] = molecular target: Proto-oncogene tyrosine-protein kinase Src (Homo sapiens) (UniProt P12931); conditions: Compound concentration 1000.0 nM
[9] = molecular target: Cyclin-dependent kinase 14 (Homo sapiens) (UniProt O94921); conditions: Compound concentration 1000.0 nM
[10] = molecular target: Casein kinase I isoform alpha (Homo sapiens) (UniProt P48729); conditions: Compound concentration 1000.0 nM
[11] = molecular target: Ephrin type-A receptor 7 (Homo sapiens) (UniProt Q15375); conditions: Compound concentration 1000.0 nM
[12] = molecular target: T1, 5-hydroxytryptamine receptor 1A (Homo sapiens) (UniProt P08908); conditions: Compound concentration 10.0 uM
T1 sequence (whole entry): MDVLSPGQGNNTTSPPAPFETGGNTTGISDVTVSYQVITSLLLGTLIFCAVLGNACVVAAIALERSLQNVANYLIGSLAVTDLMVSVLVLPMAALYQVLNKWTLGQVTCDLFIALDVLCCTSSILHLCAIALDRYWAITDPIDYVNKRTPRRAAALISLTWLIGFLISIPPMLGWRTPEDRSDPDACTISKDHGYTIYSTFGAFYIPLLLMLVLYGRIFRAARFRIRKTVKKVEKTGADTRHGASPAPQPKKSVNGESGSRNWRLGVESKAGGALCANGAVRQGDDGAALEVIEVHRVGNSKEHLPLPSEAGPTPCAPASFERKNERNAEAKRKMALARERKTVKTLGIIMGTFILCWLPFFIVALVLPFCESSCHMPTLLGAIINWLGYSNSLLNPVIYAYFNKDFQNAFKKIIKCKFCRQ

[13] = molecular target: Cyclin-dependent kinase 17 (Homo sapiens) (UniProt Q00537); conditions: Compound concentration 1000.0 nM
[14] = molecular target: Histamine H2 receptor (Homo sapiens) (UniProt P25021); conditions: Compound concentration 10.0 uM
[15] = molecular target: Alpha-1B adrenergic receptor (Homo sapiens) (UniProt P35368); conditions: Compound concentration 10.0 uM
[16] = molecular target: Phosphatidylinositol 4-kinase beta (Homo sapiens) (UniProt Q9UBF8); conditions: Compound concentration 1000.0 nM
[17] = molecular target: Serine/threonine-protein kinase Nek6 (Homo sapiens) (UniProt Q9HC98); conditions: Compound concentration 1000.0 nM
[18] = molecular target: Serine/threonine-protein kinase 38-like (Homo sapiens) (UniProt Q9Y2H1); conditions: Compound concentration 1000.0 nM
[19] = molecular target: Death-associated protein kinase 1 (Homo sapiens) (UniProt P53355); conditions: Compound concentration 1000.0 nM
[20] = molecular target: Vascular endothelial growth factor receptor 1 (Homo sapiens) (UniProt P17948); conditions: Compound concentration 1000.0 nM
[21] = molecular target: Cyclin-dependent kinase 8 (Homo sapiens) (UniProt P49336); conditions: Compound concentration 1000.0 nM
[22] = molecular target: Dual specificity protein kinase CLK3 (Homo sapiens) (UniProt P49761); conditions: Compound concentration 1000.0 nM
[23] = molecular target: Serine/threonine-protein kinase 3 (Homo sapiens) (UniProt Q13188); conditions: Compound concentration 1000.0 nM
[24] = molecular target: Phosphatidylinositol 4-phosphate 3-kinase C2 domain-containing subunit beta (Homo sapiens) (UniProt O00750); conditions: Compound concentration 1000.0 nM
[25] = molecular target: Phosphatidylinositol 4,5-bisphosphate 3-kinase catalytic subunit alpha isoform (Homo sapiens) (UniProt P42336); conditions: Compound concentration 1000.0 nM
[26] = molecular target: Phosphatidylinositol 4,5-bisphosphate 3-kinase catalytic subunit gamma isoform (Homo sapiens) (UniProt P48736); conditions: Compound concentration 1000.0 nM
[27] = molecular target: Calcium/calmodulin-dependent protein kinase type II subunit beta (Homo sapiens) (UniProt Q13554); conditions: Compound concentration 1000.0 nM
[28] = molecular target: T2, 5-hydroxytryptamine receptor 2C (Homo sapiens) (UniProt P28335); conditions: Compound concentration 10.0 uM
T2 sequence (whole entry): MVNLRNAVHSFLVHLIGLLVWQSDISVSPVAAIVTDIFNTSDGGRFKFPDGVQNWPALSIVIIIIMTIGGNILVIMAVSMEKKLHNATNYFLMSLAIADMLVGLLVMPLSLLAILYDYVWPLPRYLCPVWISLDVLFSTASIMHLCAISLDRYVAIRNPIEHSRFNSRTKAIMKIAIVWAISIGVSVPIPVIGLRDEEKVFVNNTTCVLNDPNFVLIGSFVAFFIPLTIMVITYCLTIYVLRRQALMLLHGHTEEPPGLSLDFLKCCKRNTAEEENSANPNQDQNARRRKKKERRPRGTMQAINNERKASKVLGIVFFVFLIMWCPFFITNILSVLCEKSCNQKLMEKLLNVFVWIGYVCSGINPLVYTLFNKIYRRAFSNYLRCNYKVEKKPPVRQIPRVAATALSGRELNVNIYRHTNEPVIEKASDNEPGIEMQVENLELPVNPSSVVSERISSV

[29] = molecular target: Sigma intracellular receptor 2 (Homo sapiens) (UniProt Q5BJF2); conditions: Compound concentration 10.0 uM
[30] = molecular target: Discoidin domain-containing receptor 2 (Homo sapiens) (UniProt Q16832); conditions: Compound concentration 1000.0 nM
[31] = tested on: Mast/stem cell growth factor receptor Kit (Homo sapiens), P10721 [V559D,T670I]; conditions: Compound concentration 1000.0 nM
[32] = molecular target: Receptor-type tyrosine-protein kinase FLT3 (Homo sapiens) (UniProt P36888); conditions: Compound concentration 1000.0 nM
[33] = molecular target: Myotonin-protein kinase (Homo sapiens) (UniProt Q09013); conditions: Compound concentration 1000.0 nM

Phosphatidylinositol 4,5-bisphosphate 3-kinase catalytic subunit gamma isoform (Homo sapiens), sequence (P48736 whole entry, looked up, canonical isoform): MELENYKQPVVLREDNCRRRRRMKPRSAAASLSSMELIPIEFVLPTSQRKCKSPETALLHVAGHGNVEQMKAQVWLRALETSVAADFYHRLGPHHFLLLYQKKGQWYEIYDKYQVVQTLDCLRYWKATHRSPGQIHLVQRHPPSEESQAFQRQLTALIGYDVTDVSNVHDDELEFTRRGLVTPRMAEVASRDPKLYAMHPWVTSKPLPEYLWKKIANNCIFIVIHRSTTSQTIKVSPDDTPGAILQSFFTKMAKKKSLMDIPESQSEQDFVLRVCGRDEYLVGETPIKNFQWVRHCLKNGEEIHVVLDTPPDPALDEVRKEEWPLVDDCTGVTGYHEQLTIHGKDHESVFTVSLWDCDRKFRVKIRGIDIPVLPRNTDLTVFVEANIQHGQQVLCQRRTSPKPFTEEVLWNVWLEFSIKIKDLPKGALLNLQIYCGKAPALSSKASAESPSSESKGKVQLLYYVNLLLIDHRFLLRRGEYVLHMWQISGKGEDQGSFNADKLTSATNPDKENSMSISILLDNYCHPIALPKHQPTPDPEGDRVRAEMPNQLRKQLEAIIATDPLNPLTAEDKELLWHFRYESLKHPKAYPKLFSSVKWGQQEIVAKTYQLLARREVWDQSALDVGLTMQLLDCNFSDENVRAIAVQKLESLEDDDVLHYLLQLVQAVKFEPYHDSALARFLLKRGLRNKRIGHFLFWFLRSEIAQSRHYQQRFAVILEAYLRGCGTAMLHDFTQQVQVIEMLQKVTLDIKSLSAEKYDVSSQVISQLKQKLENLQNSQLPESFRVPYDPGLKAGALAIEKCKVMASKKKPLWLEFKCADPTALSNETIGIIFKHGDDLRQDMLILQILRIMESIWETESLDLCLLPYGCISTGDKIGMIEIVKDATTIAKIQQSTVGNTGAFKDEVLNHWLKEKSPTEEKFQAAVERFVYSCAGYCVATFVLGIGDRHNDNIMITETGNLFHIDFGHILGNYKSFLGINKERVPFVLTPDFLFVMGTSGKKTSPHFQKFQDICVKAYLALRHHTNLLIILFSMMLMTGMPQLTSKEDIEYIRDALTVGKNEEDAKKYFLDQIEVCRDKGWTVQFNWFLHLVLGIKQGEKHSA
Dual specificity protein kinase CLK3 (Homo sapiens), sequence (P49761 whole entry, looked up): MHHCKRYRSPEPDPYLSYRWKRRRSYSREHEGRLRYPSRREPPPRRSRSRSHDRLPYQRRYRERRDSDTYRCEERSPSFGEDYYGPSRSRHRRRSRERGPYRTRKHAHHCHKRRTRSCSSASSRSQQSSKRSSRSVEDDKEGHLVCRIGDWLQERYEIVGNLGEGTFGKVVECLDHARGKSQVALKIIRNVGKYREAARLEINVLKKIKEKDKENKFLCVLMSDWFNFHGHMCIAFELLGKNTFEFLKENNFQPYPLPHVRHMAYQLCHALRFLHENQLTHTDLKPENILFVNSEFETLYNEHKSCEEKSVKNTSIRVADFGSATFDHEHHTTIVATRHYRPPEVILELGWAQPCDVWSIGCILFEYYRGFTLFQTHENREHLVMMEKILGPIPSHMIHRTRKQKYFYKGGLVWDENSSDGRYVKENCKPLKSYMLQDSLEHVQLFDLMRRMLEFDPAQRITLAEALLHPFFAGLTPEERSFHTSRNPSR
Tyrosine-protein kinase Yes (Homo sapiens), sequence (P07947 2-543 limits assumed): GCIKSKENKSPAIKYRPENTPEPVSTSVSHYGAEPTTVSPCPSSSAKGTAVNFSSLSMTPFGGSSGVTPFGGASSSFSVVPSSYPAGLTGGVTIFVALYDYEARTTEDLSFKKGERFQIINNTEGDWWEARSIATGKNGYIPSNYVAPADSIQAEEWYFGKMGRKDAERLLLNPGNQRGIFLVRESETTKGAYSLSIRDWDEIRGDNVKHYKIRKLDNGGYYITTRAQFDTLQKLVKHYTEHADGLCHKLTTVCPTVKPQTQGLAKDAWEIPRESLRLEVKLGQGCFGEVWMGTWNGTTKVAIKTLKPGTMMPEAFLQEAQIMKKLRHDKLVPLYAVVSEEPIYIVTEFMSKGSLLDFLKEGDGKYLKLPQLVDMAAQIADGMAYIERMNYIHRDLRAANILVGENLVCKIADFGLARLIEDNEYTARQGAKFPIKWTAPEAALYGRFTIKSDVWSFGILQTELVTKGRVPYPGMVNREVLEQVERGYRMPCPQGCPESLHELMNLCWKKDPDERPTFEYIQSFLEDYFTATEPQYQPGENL
Serine/threonine-protein kinase 24 (Homo sapiens), sequence (Q9Y6E0 whole entry, looked up): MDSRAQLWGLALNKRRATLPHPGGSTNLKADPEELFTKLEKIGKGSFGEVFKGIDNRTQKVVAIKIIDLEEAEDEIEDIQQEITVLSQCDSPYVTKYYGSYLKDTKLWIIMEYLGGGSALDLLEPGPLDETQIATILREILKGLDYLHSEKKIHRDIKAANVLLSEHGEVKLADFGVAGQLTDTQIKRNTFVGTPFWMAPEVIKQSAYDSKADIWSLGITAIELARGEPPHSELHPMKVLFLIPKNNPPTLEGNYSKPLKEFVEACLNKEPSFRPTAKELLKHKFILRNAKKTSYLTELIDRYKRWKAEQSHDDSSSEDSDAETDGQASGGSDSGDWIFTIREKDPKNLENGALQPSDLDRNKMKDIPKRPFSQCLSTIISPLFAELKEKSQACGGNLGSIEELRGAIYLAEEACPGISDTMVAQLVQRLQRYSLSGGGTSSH
Receptor-type tyrosine-protein kinase FLT3 (Homo sapiens), sequence (P36888 whole entry): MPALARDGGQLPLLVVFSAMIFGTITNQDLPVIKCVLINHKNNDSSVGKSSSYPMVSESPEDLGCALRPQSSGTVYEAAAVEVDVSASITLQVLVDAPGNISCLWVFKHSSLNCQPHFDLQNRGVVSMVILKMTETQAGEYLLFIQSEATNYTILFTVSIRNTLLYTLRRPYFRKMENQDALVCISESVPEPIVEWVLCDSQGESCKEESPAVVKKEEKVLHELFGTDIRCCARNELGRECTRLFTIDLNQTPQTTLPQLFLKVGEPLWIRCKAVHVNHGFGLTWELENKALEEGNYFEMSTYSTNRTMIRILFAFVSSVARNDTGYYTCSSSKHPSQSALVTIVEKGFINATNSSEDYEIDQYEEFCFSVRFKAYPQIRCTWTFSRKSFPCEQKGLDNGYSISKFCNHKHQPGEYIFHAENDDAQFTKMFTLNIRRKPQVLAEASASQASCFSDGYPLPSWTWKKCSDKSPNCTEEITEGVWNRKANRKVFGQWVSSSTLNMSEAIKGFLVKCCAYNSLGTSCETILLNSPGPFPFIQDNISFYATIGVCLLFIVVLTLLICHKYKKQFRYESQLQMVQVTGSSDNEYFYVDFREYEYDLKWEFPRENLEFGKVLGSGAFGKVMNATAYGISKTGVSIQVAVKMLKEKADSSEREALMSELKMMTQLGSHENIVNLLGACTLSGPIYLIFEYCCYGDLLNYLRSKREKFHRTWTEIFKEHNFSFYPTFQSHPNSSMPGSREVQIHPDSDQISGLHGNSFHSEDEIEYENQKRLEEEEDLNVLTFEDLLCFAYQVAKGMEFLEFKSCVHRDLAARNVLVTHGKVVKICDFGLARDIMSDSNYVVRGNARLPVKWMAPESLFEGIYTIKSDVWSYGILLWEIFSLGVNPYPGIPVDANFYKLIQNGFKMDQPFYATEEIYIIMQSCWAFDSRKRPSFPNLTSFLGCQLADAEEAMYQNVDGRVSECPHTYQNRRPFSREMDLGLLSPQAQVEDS
Ephrin type-A receptor 7 (Homo sapiens), sequence (Q15375 28-998 limits assumed): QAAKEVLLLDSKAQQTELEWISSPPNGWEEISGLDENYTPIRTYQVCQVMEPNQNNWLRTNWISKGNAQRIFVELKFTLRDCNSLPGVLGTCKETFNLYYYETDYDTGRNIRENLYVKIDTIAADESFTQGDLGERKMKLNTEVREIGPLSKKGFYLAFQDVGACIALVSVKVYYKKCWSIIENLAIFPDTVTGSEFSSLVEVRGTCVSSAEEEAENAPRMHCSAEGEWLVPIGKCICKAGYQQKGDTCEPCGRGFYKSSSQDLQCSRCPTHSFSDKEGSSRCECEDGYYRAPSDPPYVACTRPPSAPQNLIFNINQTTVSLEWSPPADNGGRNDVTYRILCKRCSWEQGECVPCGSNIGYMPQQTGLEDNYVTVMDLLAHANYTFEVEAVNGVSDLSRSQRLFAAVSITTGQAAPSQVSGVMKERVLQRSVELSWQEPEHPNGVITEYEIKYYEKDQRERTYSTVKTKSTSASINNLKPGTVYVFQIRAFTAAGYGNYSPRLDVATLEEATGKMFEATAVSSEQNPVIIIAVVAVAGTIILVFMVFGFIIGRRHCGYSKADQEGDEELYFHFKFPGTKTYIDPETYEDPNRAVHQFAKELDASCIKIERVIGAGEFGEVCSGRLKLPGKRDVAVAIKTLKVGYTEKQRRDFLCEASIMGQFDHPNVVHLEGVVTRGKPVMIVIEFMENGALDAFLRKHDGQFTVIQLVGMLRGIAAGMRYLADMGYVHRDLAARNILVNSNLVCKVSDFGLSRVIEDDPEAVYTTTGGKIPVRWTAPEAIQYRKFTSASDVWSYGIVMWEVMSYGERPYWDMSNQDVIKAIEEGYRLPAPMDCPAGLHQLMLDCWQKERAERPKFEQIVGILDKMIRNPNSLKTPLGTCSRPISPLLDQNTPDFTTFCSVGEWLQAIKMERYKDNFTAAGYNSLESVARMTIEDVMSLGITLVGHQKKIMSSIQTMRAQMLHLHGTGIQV
Sigma intracellular receptor 2 (Homo sapiens), sequence (Q5BJF2 whole entry, the tested form may be a part): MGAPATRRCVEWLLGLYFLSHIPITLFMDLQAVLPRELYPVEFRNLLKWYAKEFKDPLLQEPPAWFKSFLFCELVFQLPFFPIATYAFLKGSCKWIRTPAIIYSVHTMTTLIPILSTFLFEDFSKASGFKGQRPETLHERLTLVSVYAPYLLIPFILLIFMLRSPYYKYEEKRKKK

N#CC1(c2ccccn2)CCN(Cc2cc(C(=O)O)c(=O)n3ccccc23)CC1 [MSD-M1PAM]
inactive: residual activity [1] 100% | residual activity [2] 100% | residual activity [3] 94% | residual activity [4] 96% | residual activity [5] 100% | residual activity [6] 97% | residual activity [7] 95% | residual activity [8] 100% | residual activity [9] 100% | residual activity [10] 100% | residual activity [11] 100% | inhibition [12] 21% | residual activity [13] 96% | inhibition [14] 11.7% | inhibition [15] 6.68% | residual activity [16] 74% | residual activity [17] 100% | residual activity [18] 80% | residual activity [19] 100% | residual activity [20] 92% | residual activity [21] 100% | residual activity [22] 100% | residual activity [23] 98% | residual activity [24] 97% | residual activity [25] 100% | residual activity [26] 91% | residual activity [27] 100% | inhibition [28] 10.5% | inhibition [29] 5.17% | residual activity [30] 100% | residual activity [31] 100% | residual activity [32] 85% | residual activity [33] 97%

N#CC1(c2ccccn2)CCN(Cc2cc(C(=O)N3CCCC3)c(=O)n3ccccc23)CC1
inactive: residual activity [1] 87% | residual activity [2] 99% | residual activity [3] 84% | residual activity [4] 85% | residual activity [5] 100% | residual activity [6] 93% | residual activity [7] 93% | residual activity [8] 56% | residual activity [9] 100% | residual activity [10] 79% | residual activity [11] 100% | inhibition [12] 26.7% | residual activity [13] 82% | inhibition [14] 3.1% | inhibition [15] 1.36% | residual activity [16] 100% | residual activity [17] 100% | residual activity [18] 90% | residual activity [19] 89% | residual activity [20] 100% | residual activity [21] 100% | residual activity [22] 99% | residual activity [23] 92% | residual activity [24] 100% | residual activity [25] 80% | residual activity [26] 75% | residual activity [27] 89% | inhibition [28] -2.49% | inhibition [29] 24.1% | residual activity [30] 100% | residual activity [31] 88% | residual activity [32] 86% | residual activity [33] 90%
